According to patent US10829523B2, “Anti-tumor peptides and use thereof” (TOAGOSEI CO., LTD., priority 2017, dated 2020):
Peptide text beside a SMILES is read from it.

Columns and labels:
Details in all cases: 5 h incubation, n=3 average
[1] = test system: mammary cancer cell line (MDA-MB-231); test: Anti-tumor activity test, cell survival rate (WST-8); type: cell-based, human
Procedure: (§1) For any one of each sample peptide synthesized in the above Test Example 1, an anti-tumor activity was evaluated by having various kinds of cultured tumor cells as a subject.
(§2) Specifically, as a tumor cell for test, cultured mammary cancer cell line (MCF-7), cultured mammary cancer cell line (MDA-MB-231), cultured pancreatic cancer cell line (MIA PaCa-2), cultured prostate cancer cell line (PC-3), and cultured prostate cancer cell line (DU-145), which are currently available on the market, were used. Furthermore, as a subject for comparison, commercially available cultured cell line of normal human mammary epithelial cells was used. Details of the test are described below.
(§3) Namely, those cell lines were cultured in advance in DMEM medium (that is, Dulbecco's MEM medium (DMEM medium: product of Gibco) containing 10% fetal bovine serum (FBS: product of Gibco), 2 mM L-glutamine, 50 unit/mL penicillin, and 50 μg/mL of streptomycin), and adjusted such that the number of cells per well of a 96-hole (well) plate is about 1×10^4. The medium amount was 100 μL per well.
(§4) Subsequently, the 96-hole (well) plate was kept in a CO2 incubator and pre-incubation was carried out for about 1 day (22 hours to 23 hours) at conditions of 37° C., 5% CO2.
(§5) After that, a test medium containing the peptide at each concentration was prepared such that the peptide concentration in any sample to be an evaluation subject is any one of 3.13 μM, 6.25 μM, 12.5 μM, 25 μM, 50 μM, and 100 μM. Then, the test medium was supplied, in an amount of 90 μL per well, to a well in which the cells as an evaluation subject have been cultured (that is, well after the above pre-incubation). In addition, the 96-hole (well) plate was returned to the CO2 incubator and incubated for 5 hours at conditions of 37° C., 5% CO2.
(§6) Furthermore, number (n) of the test wells for the test group added with each peptide at each peptide concentration was all set at 3. Thus, the result values shown in the following table correspond to an average value of the results which have been obtained from each of test well number of 3. Cell survival rate (%) was determined as described below.
(§7) Upon completion of the incubation for 5 hours described above, the medium in each well was replaced with 100 μL of fresh medium not containing the peptide. Furthermore, “Cell Counting Kit-8” (product of Dojindo Laboratories) containing as a chromogenic reagent “Aqueous tetrazolium salt (WST-8)”, which is a reagent for measuring cell proliferation, was added in an amount of 10 μL to each well. After that, the 96-hole (well) plate was returned to the CO2 incubator and incubated for 1.5 hours at conditions of 37° C. 5% CO2.
(§8) Upon completion of the incubation, the cell culture solution added with the above reagent was recovered, and simultaneously, according to colorimetry by which absorbance at wavelength of 450 nm based on reduction of tetrazolium salt (value calibrated with absorbance at wavelength of 650 nm: A450-A650), the cell survival rate (%) was evaluated.

[2] = test system: normal human mammary epithelial cells; test: Cell survival rate test (WST-8, Cell Counting Kit-8) on normal cells for comparison; type: cell-based
Procedure: as §1, §2, §3, §4, §5, §6, §7, §8

[3] = test system: prostate cancer cell line (DU-145); test: Anti-tumor activity test, cell survival rate (WST-8); type: cell-based, human
Procedure: as §1, §2, §3, §4, §5, §6, §7, §8

[4] = test system: prostate cancer cell line (PC-3); test: as above; type: cell-based, human
Procedure: as §1, §2, §3, §4, §5, §6, §7, §8

[5] = test system: pancreatic cancer cell line (MIA PaCa-2); test: as above; type: cell-based, human
Procedure: as §1, §2, §3, §4, §5, §6, §7, §8

[6] = test system: mammary cancer cell line (MCF-7); test: as above; type: cell-based, human
Procedure: as §1, §2, §3, §4, §5, §6, §7, §8

| SMILES | Cell survival rate (%) ([1]; peptide 3.13 μM) | Cell survival rate (%) ([1]; peptide 50 μM) | Cell survival rate (%) ([2]; peptide 12.5 μM) | Cell survival rate (%) ([2]; peptide 25 μM) | Cell survival rate (%) ([2]; peptide 50 μM) | Cell survival rate (%) ([2]; peptide 100 μM) | Cell survival rate (%) ([3]; peptide 12.5 μM) | Cell survival rate (%) ([3]; peptide 25 μM) | Cell survival rate (%) ([3]; peptide 50 μM) | Cell survival rate (%) ([3]; peptide 100 μM) | Cell survival rate (%) ([4]; peptide 12.5 μM) | Cell survival rate (%) ([4]; peptide 25 μM) | Cell survival rate (%) ([4]; peptide 50 μM) | Cell survival rate (%) ([4]; peptide 100 μM) | Cell survival rate (%) ([5]; peptide 12.5 μM) | Cell survival rate (%) ([5]; peptide 25 μM) | Cell survival rate (%) ([5]; peptide 50 μM) | Cell survival rate (%) ([5]; peptide 100 μM) | Cell survival rate (%) ([6]; peptide 12.5 μM) | Cell survival rate (%) ([6]; peptide 25 μM) | also measured |
| --- | --- | --- | --- | --- | --- | --- | --- | --- | --- | --- | --- | --- | --- | --- | --- | --- | --- | --- | --- | --- | --- |
| CC[C@H](C)[C@H](NC(=O)[C@H](C)NC(=O)[C@H](CO)NC(=O)[C@@H](NC(=O)[C@H](CC(C)C)NC(=O)[C@H](Cc1ccccc1)NC(=O)[C@H](CO)NC(=O)[C@H](Cc1c[nH]c2ccccc12)NC(=O)[C@H](CCC(N)=O)NC(=O)[C@@H](NC(=O)[C@@H]1CCCN1)C(C)C)C(C)C)C(=O)N[C@@H](C)C(=O)NCC(=O)N[C@@H](CO)C(=O)N[C@H](C(=O)N[C@@H](C)C(=O)N[C@@H](CO)C(=O)N[C@@H](Cc1ccc(O)cc1)C(=O)N[C@@H](CCCNC(=N)N)C(=O)N[C@H](C(=O)N[C@@H](Cc1c[nH]c2ccccc12)C(=O)N[C@@H](CCCNC(=N)N)C(=O)N[C@@H](CCCNC(=N)N)C(=O)N[C@@H](CCC(N)=O)C(=O)N[C@@H](C)C(=O)N[C@@H](CCCNC(=N)N)C(=O)N[C@@H](Cc1ccccc1)C(=O)N[C@@H](CCCCN)C(N)=O)C(C)C)C(C)C [Sample 11] (H-PVQWSFLVSAIAGSVASYRVWRRQARFK-NH2; N-terminus assumed) | 101 | 77 | – | – | – | – | – | – | – | – | – | – | – | – | – | – | – | – | – | – | – |
| CC[C@H](C)[C@H](NC(=O)CNC(=O)[C@H](CC(C)C)NC(=O)[C@H](CC(C)C)NC(=O)[C@H](Cc1ccccc1)NC(=O)[C@@H](NC(=O)CNC(=O)[C@@H](NC(=O)CNC(=O)[C@H](CCCCN)NC(=O)[C@@H](N)CCSC)[C@@H](C)O)[C@@H](C)O)C(=O)N[C@@H](C)C(=O)NCC(=O)N[C@@H](CC(C)C)C(=O)N[C@@H](Cc1ccccc1)C(=O)N[C@H](C(=O)N[C@@H](CC(C)C)C(=O)N[C@@H](CCC(N)=O)C(=O)N[C@@H](CCCCN)C(=O)N[C@H](C(=O)N[C@H](C(=O)N[C@@H](CCC(N)=O)C(=O)N[C@@H](CCCNC(=N)N)C(=O)N[C@@H](CCCNC(=N)N)C(=O)N[C@@H](CCCNC(=N)N)C(=O)N[C@@H](CCCNC(=N)N)C(=O)N[C@@H](CCCNC(=N)N)C(=O)N[C@@H](CCCNC(=N)N)C(=O)N[C@@H](CCCNC(=N)N)C(=O)N[C@@H](CCCNC(=N)N)C(=O)N[C@@H](CCCNC(=N)N)C(N)=O)[C@@H](C)CC)C(C)C)[C@@H](C)O [Sample 2] (H-MKGTGTFLLGIAGLFTLQKVIQRRRRRRRRR-NH2; N-terminus assumed) | – | 52.6 | 88.3 | 82.1 | 56.1 | 42.7 | 86.2 | 75.2 | 41.2 | 16.4 | 101.1 | 80.9 | 45.2 | 42.6 | 94.4 | 91.3 | 36.7 | 7 | 75.7 | 49.1 | Cell survival rate (%) ([6]; peptide 50 μM): 20.2%; Cell survival rate (%) ([6]; peptide 100 μM): 17.6%; Cell survival rate (%) ([1]; peptide 12.5 μM): 80%; Cell survival rate (%) ([1]; peptide 25 μM): 69.7%; Cell survival rate (%) ([1]; peptide 100 μM): 44.3% |
| CC[C@H](C)[C@H](NC(=O)[C@H](CO)NC(=O)[C@@H](NC(=O)[C@H](Cc1ccccc1)NC(=O)[C@H](CC(C)C)NC(=O)[C@H](CC(N)=O)NC(=O)[C@H](Cc1c[nH]c2ccccc12)NC(=O)[C@H](CCC(N)=O)NC(=O)[C@@H](N)CC(C)C)C(C)C)C(=O)N[C@H](C(=O)N[C@@H](CO)C(=O)N[C@@H](CO)C(=O)N[C@@H](CO)C(=O)N[C@H](C(=O)N[C@@H](Cc1ccccc1)C(=O)N[C@@H](CO)C(=O)N[C@@H](Cc1ccc(O)cc1)C(=O)N[C@@H](CO)C(=O)N[C@H](C(=O)N[C@@H](Cc1c[nH]c2ccccc12)C(=O)N[C@@H](CCCNC(=N)N)C(=O)N[C@@H](CCCNC(=N)N)C(=O)N[C@@H](CCC(N)=O)C(=O)N[C@@H](C)C(=O)N[C@@H](CCCNC(=N)N)C(=O)N[C@@H](Cc1ccccc1)C(=O)N[C@@H](CCCCN)C(N)=O)C(C)C)C(C)C)C(C)C [Sample 9] (H-LQWNLFVSIVSSSVFSYSVWRRQARFK-NH2; N-terminus assumed) | 99 | 73 | – | – | – | – | – | – | – | – | – | – | – | – | – | – | – | – | – | – | – |
| CC[C@H](C)[C@H](NC(=O)CNC(=O)[C@@H](NC(=O)[C@@H](NC(=O)CNC(=O)[C@H](CC(C)C)NC(=O)[C@@H](NC(=O)[C@H](Cc1ccccc1)NC(=O)[C@H](CO)NC(=O)[C@H](C)NC(=O)[C@@H](NC(=O)CNC(=O)[C@H](CCCCN)NC(=O)[C@H](CCSC)NC(=O)[C@H](Cc1ccccc1)NC(=O)[C@H](C)NC(=O)[C@@H](N)Cc1ccc(O)cc1)[C@@H](C)O)[C@@H](C)CC)[C@@H](C)O)C(C)C)C(=O)N[C@@H](Cc1ccccc1)C(=O)N[C@@H](Cc1ccccc1)C(=O)NCC(=O)N[C@@H](Cc1c[nH]c2ccccc12)C(=O)N[C@@H](CCCNC(=N)N)C(=O)N[C@@H](CCCNC(=N)N)C(=O)N[C@@H](CCC(N)=O)C(=O)N[C@@H](C)C(=O)N[C@@H](CCCNC(=N)N)C(=O)N[C@@H](Cc1ccccc1)C(=O)N[C@@H](CCCCN)C(N)=O [Sample 8] (H-YAFMKGTASFILGTVGIFFGWRRQARFK-NH2; N-terminus assumed) | 99 | 76 | – | – | – | – | – | – | – | – | – | – | – | – | – | – | – | – | – | – | – |
| CC[C@H](C)[C@H](NC(=O)[C@H](CO)NC(=O)[C@@H](NC(=O)[C@H](CC(C)C)NC(=O)[C@H](CC(C)C)NC(=O)[C@H](CC(N)=O)NC(=O)[C@H](Cc1c[nH]c2ccccc12)NC(=O)[C@H](CCC(N)=O)NC(=O)[C@H](CC(C)C)NC(=O)[C@@H]1CCCN1C(=O)[C@@H](N)Cc1ccc(O)cc1)[C@@H](C)CC)C(=O)N[C@@H](CC(C)C)C(=O)N[C@@H](C)C(=O)N[C@@H](CO)C(=O)N[C@@H](CO)C(=O)N[C@H](C(=O)NCC(=O)N[C@@H](CO)C(=O)N[C@@H](Cc1ccc(O)cc1)C(=O)N[C@@H](C)C(=O)N[C@H](C(=O)N[C@@H](CCCCN)C(=O)N[C@@H](CCCCN)C(=O)N[C@@H](CCCNC(=N)N)C(=O)N[C@H](C(=O)N[C@@H](CC(C)C)C(=O)N[C@@H](CCCNC(=N)N)C(=O)N[C@@H](CCCCN)C(=O)N[C@@H](CC(N)=O)C(=O)N[C@@H](CC(=O)O)C(=O)N[C@@H](CCCNC(=N)N)C(=O)N[C@@H](CCCCN)C(=O)N[C@@H](CCCCN)C(=O)N[C@@H](CCCNC(=N)N)C(N)=O)[C@@H](C)O)C(C)C)C(C)C [Sample 3] (H-YPLQWNLLISILASSVGSYAVKKRTLRKNDRKKR-NH2; N-terminus assumed) | – | 54.5 | 83.6 | 71.6 | 81.5 | 74.8 | 78.6 | 73.7 | 49.3 | 37.5 | 64.6 | 66.5 | 62.5 | 47 | 101.4 | 93.8 | 88.5 | 45.6 | 79.3 | 71.8 | Cell survival rate (%) ([6]; peptide 50 μM): 50%; Cell survival rate (%) ([6]; peptide 100 μM): 32.8%; Cell survival rate (%) ([1]; peptide 12.5 μM): 77.9%; Cell survival rate (%) ([1]; peptide 25 μM): 65.7%; Cell survival rate (%) ([1]; peptide 100 μM): 45% |
